Tests used:
recombinant E2 protein = target: T1, recombinant E2 protein (Hepatitis C virus genotype 1b, UniProt Q9WMX2); test: Surface plasmon resonance (Biacore T100) binding to recombinant E2 immobilized on CM5 chip
T1 construct: encoding amino acids 384-656 of the Con1 envelope protein 2 ectodomain (eE2); made in house; host or cells: HEK293T cells (lentiviral, secreted)
Text: A construct containing the sequence encoding amino acids 384-656 of the Con1 envelope protein 2 ectodomain (eE2), a genoptype 1 E2 sequence, was cloned into a lentiviral expression vector with a carboxy-terminal Protein A tag separated by a PreScission Protease cleavage consensus sequence. eE2-ProtA was stably expressed in HEK293T cells using lentiviral infection. The protein was secreted into the media and supernatants were purified using IgG Sepharose (GE Healthcare, Piscataway, N.J.). eE2-ProtA was eluted with 100 mM sodium citrate and 20 mM KCl at pH 3 directly into tubes containing 1M Tris pH 9 for immediate neutralization. PreScission Protease was added to the eluted sample at a ratio of 1:50 (enzyme:eE2), and the digest was then dialyzed into 20 mM HEPES pH 7.5, 250 mM NaCl, 5% glycerol. eE2 was separated from the cleaved tag and the PreScission Protease by ion exchange chromatography.
The set of 34 of the ligands predicted by AutoDock to bind to E2 were tested experimentally to determine if they bind to recombinant E2 protein immobilized on a chip using surface Plasmon resonance. The SPR analyses were performed using a Biacore T100 workstation (GE Healthcare, NJ, USA) and Prot-A-tagged HCV E2 protein. 1 μM ProtA-HCV E2 was diluted into 10 mM sodium acetate buffer pH 5 and immobilized for 15 min at a flow speed of 5 μl/min onto a CM5 sensor chip using amine coupling (EDC-NHS). Approximately 10,000 response units (RU) of protein were immobilized on the chip. His-CD81-LEL (Bioclone-CA/USA) binding to HCV E2 was tested prior to injecting the ligands to confirm the E2 protein was functional and would bind CD81-LEL. In a typical experiment with CD81, […] of his-CD81 in 114 μl PBS was injected into channel 2 and 106.4 RUs of CD81 bound to the E2 on the chip. This was followed by testing the binding of the 34 virtual screening hits where the ligands were prepared as 200 μM solutions in PBS and they were introduced to the protein using a pre-programmed 3 min association and 1 min dissociation interval. The response was measured at two time points during dissociation, 10 and 50 seconds, to obtain information on the rate of ligand dissociation from E2. Twenty-three of the ligands predicted by AutoDock to bind to E2 were observed by SPR to bind to the recombinant protein (Table 2). The measured responses for the ligands that bound varied from 54 to 276 RUs. Data was also obtained on the rate of ligand dissociation by measuring the amount of ligand remaining bound at two time points, dissociation 1 (10 seconds) and dissociation 2 (50 seconds), during the rinsing of the chip with buffer (FIG. 8). The majority of the ligands dissociated quickly, as one might expect for small molecules that bind to the surface of a protein.

HCVpp 2a [1] = test: HCVpp 2a infection of Huh-7 cells, 96-well (luciferase); format: cell-based, HCV; conditions: Hepatitis C virus, Huh-7, 30 h, read-out: IC50 HCVpp
Description: (§1) Pseudotyped retroviral particles harboring HCV envelope proteins (HCVpp) from different genotypes were produced as described previously. A plasmid encoding the feline endogenous virus RD114 glycoprotein [35] was used for the production of RD114pp. Both HCVpp and RD114pp expressed Firefly luciferase.
(§2) To identify ligands that inhibit HCV infection, Huh-7 cells were seeded in 96-well plates and treated the day after with six different concentrations of each ligand diluted in DMSO in duplicate using a Zephyr automated liquid handling workstation (Caliper BioSciences, Hopkinton, Mass.). The final concentration of DMSO (1%) was adjusted to be the same for all ligand concentrations. Cells treated with DMSO were used as negative controls. Cells treated with different concentrations of anti-CD81 (JS-81 from BD Pharmingen, San Jose, Calif.) 1 hour before infection, were also used as positive controls. The third day, RD114pp, HCVpp or HCVcc were inoculated and incubated for 30 hours at 37° C. Firefly and Gaussia luciferase assays were performed as indicated by the manufacturer (Promega, San Luis Obispo, Calif.).
(§3) The remaining ligands were next tested against pseudotyped retroviral particles harboring genotype-2a HCV envelope proteins (HCVpp 2a), cell culture produced HCV particles (HCVcc) or RD114pp. As a positive control, an anti-CD81 antibody was used in parallel.

HCVpp 1a = test: HCVpp genotype infection of Huh-7 cells, 24-well; format: cell-based, HCV; conditions: Hepatitis C virus
Description: as §1, §2
(§4) The analysis of the effect of 281816 ligand on Huh-7 infection by HCVpp bearing envelope proteins from different genotypes was performed in 24-well plates using the method described above. This ligand was also screened for toxicity to the hepatocytes using the MTS (3-(4,5-dimethylthiazol-2-yl)-5-(3-carboxymethoxyphenyl)-2-(4-sulfophenyl)-2Htetrazolium) assay.
(§5) To determine if 281816 would inhibit HCV genotypes other than 2a, a series of infection assays were performed with HCVpp bearing envelope proteins from a number of different HCV genotypes.

HCVpp 1b = test: HCVpp genotype infection of Huh-7 cells, 24-well; format: cell-based, HCV; conditions: Hepatitis C virus
Description: as §1, §2, §4, §5

HCVpp 2a [2] = test: HCVpp genotype infection of Huh-7 cells, 24-well; format: cell-based, HCV; conditions: Hepatitis C virus
Description: as §1, §2, §4, §5

HCVpp 2b = test: HCVpp genotype infection of Huh-7 cells, 24-well; format: cell-based, HCV; conditions: Hepatitis C virus
Description: as §1, §2, §4, §5

HCVpp 4a = test: HCVpp genotype infection of Huh-7 cells, 24-well; format: cell-based, HCV; conditions: Hepatitis C virus
Description: as §1, §2, §4, §5

HCVpp 6a = test: HCVpp genotype infection of Huh-7 cells, 24-well; format: cell-based, HCV; conditions: Hepatitis C virus
Description: as §1, §2, §4, §5

[3] = MTS viability / hepatocyte toxicity assay; format: cell-based; conditions: human
Description: as §4, §3

hepatocytes = test: MTS viability / hepatocyte toxicity assay; format: cell-based; conditions: over the concentrations tested in the infection assays, highest 10 μM
Description: as §4, §3

T1 sequence (Q9WMX2 384-656): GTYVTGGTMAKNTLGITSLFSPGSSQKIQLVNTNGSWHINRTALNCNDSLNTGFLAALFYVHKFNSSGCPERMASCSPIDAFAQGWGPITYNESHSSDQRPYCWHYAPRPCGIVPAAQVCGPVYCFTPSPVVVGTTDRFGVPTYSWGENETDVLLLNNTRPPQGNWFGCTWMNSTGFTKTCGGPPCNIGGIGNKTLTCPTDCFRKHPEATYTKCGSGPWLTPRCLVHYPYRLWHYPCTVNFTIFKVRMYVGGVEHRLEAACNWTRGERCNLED

## CSc1ccc2c(c1)C(N1CCN(C)CC1)Cc1ccccc1S2 (stereo not drawn) [Ligand 281816]
Recombinant E2 protein; 200 μM ligand in PBS, 3 min association
  Binding (RU): 64.5 RU
Recombinant E2 protein; response remaining 10 sec after rinsing with buffer
  Dissociation 1 (RU): 3.7 RU
Recombinant E2 protein; response remaining 50 sec after rinsing with buffer
  Dissociation 2 (RU): 0.9 RU
HCVpp 2a [1]
  IC50: 1.02 µM
HCVpp 1a
  IC50: 2.95 µM
HCVpp 1b
  IC50: 4.66 µM
HCVpp 2a [2]
  IC50: 2.22 µM
HCVpp 2b
  IC50: 2.93 µM
HCVpp 4a
  IC50: 3.44 µM
HCVpp 6a
  IC50: 3.3 µM
[3]
  CC50: 14 µM
hepatocytes
  hepatocyte toxicity: not observed
